Measured values from patent US20100267712A1, “ISOINDOLINE COMPOUNDS FOR THE TREATMENT OF SPINAL MUSCULAR ATROPHY AND OTHER USES” (The United States of America, as represented by the …, priority 2007, published 2010).

How the values were obtained:
[1] = test system: SMN protein; settings: cited from earlier work
[2] = test system: SMN2-linked luciferase-reporter gene construct; experiment: SMN Splice Reporter Assay (SMN2-linked luciferase reporter); format: cell-based; settings: result in words
How it was run: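 Cervical carcinoma cells carrying an SMN2-luciferase splicing reporter, in-frame only with exon 7 inclusion, were treated with compound. Luciferase activity reported as fold increase over untreated transformed cells, with EC50 derived.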

[3] = test system: SMA model mouse fetuses; settings: administered in utero; cited from earlier work

CC(C(=O)O)c1ccc(N2Cc3ccccc3C2=O)cc1 (stereo not shown) [Indoprofen, indoprofen]
production of SMN from the endogenous SMN2 gene ([1]; SMA patient fibroblasts): increase in production of SMN
level of expression of SMN protein ([1]; cultured cells, Lunn et al. 2004): increases the level of expression of SMN protein
luciferase activity [2]: increases luciferase activity
survival of SMA model mouse fetuses [3]: increase survival
